The values that follow come from article PMC8280778, “^18F-ASEM Imaging for Evaluating Atherosclerotic Plaques Linked to α7-Nicotinic Acetylcholine Receptor” (Frontiers in Bioengineering and Biotechnology, 2021).

Like-named read-outs stand apart in the source and are kept apart here.

The target in data set [1] is α7nAChR. Set-up: method as in Gao et al., 2013; Wang et al., 2018. Particulars: affinity for α7nAChR; ref Gao et al., 2013; Wang et al., 2018; cited from earlier work.
Data set [2] has as its target T1, α7nAChR (Oryctolagus cuniculus, UniProt A0A0H4CUK0).
T1 construct: from tissue; host or cells: living New Zealand rabbits (abdominal aorta with atherosclerotic plaques)
As to the kind of experiment: PET/CT imaging of abdominal aorta atherosclerotic plaques in New Zealand rabbits. The class given is in vivo. Particulars: model rabbits, PET/CT 30 min after injection. The method, then:
New Zealand rabbits (n = 4; weight, 2.5–3.0 kg) were fed with high-fat diet for 14 weeks. The balloon-sprained and injured experiment was carried out at the third week after 2 weeks of high-fat diet. First, rabbits were anesthetized by 10% chloral hydrate, a 3-cm incision was conducted in the right inguinal area to expose the right femoral artery; then, the right femoral artery was punctured by Seldinger technique. Second, an angiographic catheter with double lumen balloon was sent to the aortic arch under fluoroscopy. Third, the balloon was bulged and pulled down to the bifurcation of the distal iliac artery of the abdominal aorta for three times. Lastly, the catheter and sheath were removed, and the operational incisions were sutured (Figure 2).
First, rabbits (n = 4) were anesthetized by 10% chloral hydrate (2 ml/kg). Then, ^18F-ASEM solution (74 MBq in 0.2 ml normal saline) was injected into the right ear vein of rabbits. After that, the imaging procedure was conducted 30 min after injection of ^18F-ASEM and lasted for 10 min performed by PET/CT (Discovery IQ 2.0 GE). The injection of ^18F-FDG (74 MBq in 0.2 ml normal saline) and PET/CT imaging were performed in the same strategy on the next day. The reconstruction mode was super iterative. The % ID/g value was worked out in the same protocol as mentioned above through IRW 4.0 software.

A short description of data set [3]: biological distribution of the tracer in normal mice (dynamic PET). The class given is in vivo.
In data set [4] the target is α7nAChR (Mus musculus, UniProt P49582). As to the method: ApoE^–/– mice (n = 4; weight, 25–30 g) and normal mice (n = 4; weight, 25–30 g) were randomly selected; the chosen ApoE^–/– mice were fed with 21% fat and 0.15% cholesterol supplement for 11–12 weeks.
The high-performance liquid chromatography (HPLC)-purified ^18F-ASEM [[…], dissolved in 0.2 ml normal saline, containing 5% dimethyl sulfoxide (DMSO)] was injected into tail vein of ApoE^–/– mice and normal mice. ApoE^–/– mice, positioned prone position, were anesthetized (1–2% isoflurane) through inhalation. After anesthesia, mice were injected with 5.56 MBq (150 μCi) ^18F-ASEM through the tail vein and underwent a dynamic imaging for 1 h. Dynamic PET scanning were carried out at 5, 10, 15, 30, and 60 min after injection, and biological distributions were analyzed as previously described by our group ([Wang et al., 2021]). Briefly, the regions of interest (ROIs) were cycled from 3D ordered subset expectation maximization (OSEM 3D) reconstruction images, then % ID/g value was calculated by Inveon Research Workplace 4.0 (IRW4.0).

In data set [5] the test system is α7nAChR. Set-up: method as in Gao et al., 2013; Wang et al., 2018. Particulars: specificity for α7nAChR; ref Gao et al., 2013; Wang et al., 2018; cited from earlier work.

Chain of α7nAChR (Mus musculus, UniProt P49582) (P49582 23-502): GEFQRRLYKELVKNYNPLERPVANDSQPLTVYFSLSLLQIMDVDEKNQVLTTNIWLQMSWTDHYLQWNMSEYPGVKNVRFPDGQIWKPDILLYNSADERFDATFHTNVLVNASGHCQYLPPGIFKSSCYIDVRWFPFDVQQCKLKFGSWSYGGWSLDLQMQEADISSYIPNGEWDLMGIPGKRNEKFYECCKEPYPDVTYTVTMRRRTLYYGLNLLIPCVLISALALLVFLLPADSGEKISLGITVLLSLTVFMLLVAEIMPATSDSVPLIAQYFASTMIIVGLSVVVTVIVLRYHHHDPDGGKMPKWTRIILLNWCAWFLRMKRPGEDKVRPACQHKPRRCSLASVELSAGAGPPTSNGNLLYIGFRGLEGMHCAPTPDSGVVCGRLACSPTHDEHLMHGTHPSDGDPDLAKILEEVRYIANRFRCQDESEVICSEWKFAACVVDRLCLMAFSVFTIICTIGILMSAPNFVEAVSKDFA
T1 sequence (A0A0H4CUK0 25-504): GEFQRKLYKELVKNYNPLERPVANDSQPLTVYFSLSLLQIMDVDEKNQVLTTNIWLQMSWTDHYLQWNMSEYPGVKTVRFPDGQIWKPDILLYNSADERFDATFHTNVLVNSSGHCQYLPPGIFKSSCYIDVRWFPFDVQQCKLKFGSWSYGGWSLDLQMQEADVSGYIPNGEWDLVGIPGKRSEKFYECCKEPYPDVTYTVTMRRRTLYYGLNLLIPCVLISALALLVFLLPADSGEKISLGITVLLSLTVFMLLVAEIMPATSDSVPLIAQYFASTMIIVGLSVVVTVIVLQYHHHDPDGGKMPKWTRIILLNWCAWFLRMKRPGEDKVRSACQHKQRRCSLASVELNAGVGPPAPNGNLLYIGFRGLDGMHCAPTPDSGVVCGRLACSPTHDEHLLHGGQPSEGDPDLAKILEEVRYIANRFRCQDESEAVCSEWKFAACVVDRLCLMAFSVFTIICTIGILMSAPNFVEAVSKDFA

As a reminder, the Ki is the dissociation constant of the complex between target and ligand, obtained from inhibition or displacement. For `O=S1(=O)c2cc(N3CCN4CCC3CC4)ccc2-c2cccc(F)c21` [^18F-ASEM], the Ki at α7nAChR [1] is 0.4 nM.

As for `O=S1(=O)c2cc(N3CCN4CCC3CC4)ccc2-c2cccc([18F])c21` [^18F-ASEM], at α7nAChR [2], the “uptake in plaques at abdominal arterial scratches zones” value is “remarkable uptake”. Further, in data set [3] (after injection), the “time of peak uptake in the kidney” value is recorded as 5 min. Further, the “time of peak uptake in the liver” value in data set [3] (after injection) is reported as 15 min. For the same compound, the “uptake in the muscle” value in data set [3] (compared with other organs) is given as “lowest uptake”. Also, the “uptake in the arteries” value on α7nAChR [4] (ApoE–/– mice) was 4.05 ± 0.64 ID%/g; on α7nAChR [4] (ApoE–/– mice, 5 min after injection) it was 4.39 ± 1.08 ID%/g; on α7nAChR [4] (ApoE–/– mice, 15 min after injection) it was 4.20 ± 0.46 ID%/g; on α7nAChR [4] (ApoE–/– mice, 60 min after injection) it was 3.80 ± 0.43 ID%/g; at α7nAChR [4] (control group mice) it was 2.40 ± 0.41 ID%/g; at α7nAChR [4] (control group mice, 5 min after injection) it was 2.35 ± 0.58 ID%/g. In addition, the “uptake in the arteries” value on α7nAChR [4] (control group mice, 15 min after injection) is 2.46 ± 0.34 ID%/g; at α7nAChR [4] (control group mice, 60 min after injection) it was 2.70 ± 0.28 ID%/g. In addition, the “uptake in the carotid artery (PET imaging)” value on α7nAChR [4] (ApoE–/– mouse) was “more ^18F-ASEM gathering”. Also, the “PET signal in the normal group” value at α7nAChR [4] (normal mice) is listed as “no signal”. The BPND in the data set on α7nAChR [5] is 3.9–6.6.

For ^18F-FDG, the “uptake in the carotid artery (PET imaging)” value on α7nAChR [4] (mouse, in vivo) is recorded as “slight”.
